Read-outs that look alike come from different tables or passages of the source.
What was measured:
Assay type in all cases: binding
[1] = target: T1, HeLa cell extract proteins (Homo sapiens, UniProt Q13618)
T1 construct: endogenous in cells; host or cells: HeLa cell extract

[2] = target: T2, HeLa cell extract proteins (Homo sapiens, UniProt Q15366)
T2 construct: endogenous in cells; host or cells: HeLa cell extract

[3] = target: T3, HeLa cell extract proteins (Homo sapiens, UniProt P49189)
T3 construct: endogenous in cells; host or cells: HeLa cell extract
T3 sequence (P49189 whole entry): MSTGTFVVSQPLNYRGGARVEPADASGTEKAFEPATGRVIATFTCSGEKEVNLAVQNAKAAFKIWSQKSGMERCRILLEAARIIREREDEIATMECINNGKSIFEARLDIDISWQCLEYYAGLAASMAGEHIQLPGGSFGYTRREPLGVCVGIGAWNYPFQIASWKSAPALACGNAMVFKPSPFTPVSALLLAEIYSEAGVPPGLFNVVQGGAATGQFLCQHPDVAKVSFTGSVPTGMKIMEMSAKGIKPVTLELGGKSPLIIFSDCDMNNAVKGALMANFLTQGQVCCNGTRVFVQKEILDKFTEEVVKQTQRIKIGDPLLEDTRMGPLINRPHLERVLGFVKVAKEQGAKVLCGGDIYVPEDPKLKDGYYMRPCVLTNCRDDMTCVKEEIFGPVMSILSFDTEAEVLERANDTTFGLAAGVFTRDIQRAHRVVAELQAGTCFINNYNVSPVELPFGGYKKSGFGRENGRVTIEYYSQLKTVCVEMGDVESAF

[4] = target: T4, HeLa cell extract proteins (Homo sapiens, UniProt P14324)
T4 construct: endogenous in cells; host or cells: HeLa cell extract
T4 sequence (P14324 1-419): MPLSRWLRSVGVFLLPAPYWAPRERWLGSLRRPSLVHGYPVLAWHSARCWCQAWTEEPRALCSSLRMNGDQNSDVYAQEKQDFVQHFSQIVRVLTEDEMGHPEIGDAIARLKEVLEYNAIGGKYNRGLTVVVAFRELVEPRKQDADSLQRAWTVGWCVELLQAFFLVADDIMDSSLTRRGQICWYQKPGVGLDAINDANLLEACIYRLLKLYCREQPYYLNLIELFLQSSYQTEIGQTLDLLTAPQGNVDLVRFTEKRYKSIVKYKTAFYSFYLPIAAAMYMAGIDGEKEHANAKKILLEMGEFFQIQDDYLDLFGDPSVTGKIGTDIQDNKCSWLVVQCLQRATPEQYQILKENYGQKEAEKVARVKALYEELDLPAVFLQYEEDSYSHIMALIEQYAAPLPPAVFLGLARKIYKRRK

[5] = target: T5, HeLa cell extract proteins (Homo sapiens, UniProt P09972)
T5 construct: endogenous in cells; host or cells: HeLa cell extract
T5 sequence (P09972 1-364): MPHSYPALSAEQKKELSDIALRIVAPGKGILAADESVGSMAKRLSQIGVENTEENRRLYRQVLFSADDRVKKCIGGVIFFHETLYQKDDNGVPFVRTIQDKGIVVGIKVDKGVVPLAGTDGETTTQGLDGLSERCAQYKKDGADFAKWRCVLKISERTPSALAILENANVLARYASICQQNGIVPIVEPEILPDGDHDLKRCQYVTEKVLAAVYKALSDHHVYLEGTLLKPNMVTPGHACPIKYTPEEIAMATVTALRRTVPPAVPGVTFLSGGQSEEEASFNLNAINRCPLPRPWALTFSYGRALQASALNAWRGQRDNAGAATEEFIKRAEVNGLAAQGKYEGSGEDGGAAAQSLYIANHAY

[6] = target: T6, HeLa cell extract proteins (Homo sapiens, UniProt P35579)
T6 construct: endogenous in cells; host or cells: HeLa cell extract
T6 sequence (P35579 whole entry): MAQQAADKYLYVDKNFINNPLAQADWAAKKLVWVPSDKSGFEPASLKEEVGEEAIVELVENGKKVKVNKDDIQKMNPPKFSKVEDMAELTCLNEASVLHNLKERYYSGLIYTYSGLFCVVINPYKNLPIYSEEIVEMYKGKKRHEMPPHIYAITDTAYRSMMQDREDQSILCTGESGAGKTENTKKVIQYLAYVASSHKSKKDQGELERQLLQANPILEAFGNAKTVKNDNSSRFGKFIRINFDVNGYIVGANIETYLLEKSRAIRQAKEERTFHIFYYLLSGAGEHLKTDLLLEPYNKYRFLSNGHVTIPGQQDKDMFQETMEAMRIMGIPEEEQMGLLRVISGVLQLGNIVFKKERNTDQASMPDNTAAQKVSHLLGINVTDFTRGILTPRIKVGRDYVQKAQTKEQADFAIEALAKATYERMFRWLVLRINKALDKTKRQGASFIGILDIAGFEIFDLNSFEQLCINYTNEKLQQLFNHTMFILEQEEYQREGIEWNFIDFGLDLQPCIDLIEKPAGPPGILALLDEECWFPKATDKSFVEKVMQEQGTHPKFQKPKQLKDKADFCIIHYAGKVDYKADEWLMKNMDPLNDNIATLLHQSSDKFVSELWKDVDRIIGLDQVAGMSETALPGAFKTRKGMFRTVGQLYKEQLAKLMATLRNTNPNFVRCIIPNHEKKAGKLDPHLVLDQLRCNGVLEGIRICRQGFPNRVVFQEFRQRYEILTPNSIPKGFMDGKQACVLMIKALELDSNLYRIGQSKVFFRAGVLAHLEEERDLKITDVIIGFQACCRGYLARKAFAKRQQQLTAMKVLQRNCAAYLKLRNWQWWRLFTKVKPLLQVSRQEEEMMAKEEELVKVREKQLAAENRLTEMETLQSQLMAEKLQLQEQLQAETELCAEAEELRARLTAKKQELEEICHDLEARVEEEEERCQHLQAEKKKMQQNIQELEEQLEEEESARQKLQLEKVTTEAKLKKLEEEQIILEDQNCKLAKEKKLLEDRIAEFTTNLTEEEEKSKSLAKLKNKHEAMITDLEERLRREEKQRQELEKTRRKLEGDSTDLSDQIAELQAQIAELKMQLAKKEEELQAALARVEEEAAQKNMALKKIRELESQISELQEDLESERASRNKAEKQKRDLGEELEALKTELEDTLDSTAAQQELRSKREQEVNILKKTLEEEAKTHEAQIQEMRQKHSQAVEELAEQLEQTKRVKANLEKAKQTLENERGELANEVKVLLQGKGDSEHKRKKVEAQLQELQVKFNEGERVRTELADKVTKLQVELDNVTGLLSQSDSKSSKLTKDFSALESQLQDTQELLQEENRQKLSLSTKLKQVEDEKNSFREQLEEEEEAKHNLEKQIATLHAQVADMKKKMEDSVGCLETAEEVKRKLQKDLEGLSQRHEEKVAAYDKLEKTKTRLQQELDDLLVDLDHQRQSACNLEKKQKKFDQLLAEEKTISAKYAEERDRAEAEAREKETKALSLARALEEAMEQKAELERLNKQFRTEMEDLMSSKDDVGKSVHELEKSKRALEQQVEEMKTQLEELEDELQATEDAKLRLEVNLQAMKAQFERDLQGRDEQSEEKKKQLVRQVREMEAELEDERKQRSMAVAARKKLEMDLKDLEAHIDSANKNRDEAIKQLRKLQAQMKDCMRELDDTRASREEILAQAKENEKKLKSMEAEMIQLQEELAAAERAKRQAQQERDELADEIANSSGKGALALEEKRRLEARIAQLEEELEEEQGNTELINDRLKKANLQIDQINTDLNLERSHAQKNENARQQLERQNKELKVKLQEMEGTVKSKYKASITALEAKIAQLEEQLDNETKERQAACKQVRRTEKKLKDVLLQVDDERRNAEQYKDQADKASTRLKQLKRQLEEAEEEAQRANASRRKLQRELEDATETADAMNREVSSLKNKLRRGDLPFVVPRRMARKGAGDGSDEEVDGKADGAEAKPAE

[7] = target: T7, HeLa cell extract proteins (Homo sapiens, UniProt P27824)
T7 construct: endogenous in cells; host or cells: HeLa cell extract
T7 sequence (P27824 21-592): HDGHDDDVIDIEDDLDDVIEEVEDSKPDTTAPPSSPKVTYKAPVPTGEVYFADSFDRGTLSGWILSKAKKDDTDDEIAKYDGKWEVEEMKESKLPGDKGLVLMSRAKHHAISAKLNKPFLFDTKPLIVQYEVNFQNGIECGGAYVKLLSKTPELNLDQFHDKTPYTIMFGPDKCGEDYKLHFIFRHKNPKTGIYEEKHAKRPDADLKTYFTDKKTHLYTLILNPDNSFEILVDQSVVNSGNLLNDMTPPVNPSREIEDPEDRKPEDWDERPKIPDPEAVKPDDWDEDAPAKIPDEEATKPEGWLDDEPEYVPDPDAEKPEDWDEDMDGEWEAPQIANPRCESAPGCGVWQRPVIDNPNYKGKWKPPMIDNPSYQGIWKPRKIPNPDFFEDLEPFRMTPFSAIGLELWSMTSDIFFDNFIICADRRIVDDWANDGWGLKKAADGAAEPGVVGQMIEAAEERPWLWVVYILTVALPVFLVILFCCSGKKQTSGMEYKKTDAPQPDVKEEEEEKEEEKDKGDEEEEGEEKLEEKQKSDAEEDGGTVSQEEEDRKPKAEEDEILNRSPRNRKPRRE

[8] = target: T8, HeLa cell extract proteins (Homo sapiens, UniProt P52597)
T8 construct: endogenous in cells; host or cells: HeLa cell extract
T8 sequence (P52597 1-415): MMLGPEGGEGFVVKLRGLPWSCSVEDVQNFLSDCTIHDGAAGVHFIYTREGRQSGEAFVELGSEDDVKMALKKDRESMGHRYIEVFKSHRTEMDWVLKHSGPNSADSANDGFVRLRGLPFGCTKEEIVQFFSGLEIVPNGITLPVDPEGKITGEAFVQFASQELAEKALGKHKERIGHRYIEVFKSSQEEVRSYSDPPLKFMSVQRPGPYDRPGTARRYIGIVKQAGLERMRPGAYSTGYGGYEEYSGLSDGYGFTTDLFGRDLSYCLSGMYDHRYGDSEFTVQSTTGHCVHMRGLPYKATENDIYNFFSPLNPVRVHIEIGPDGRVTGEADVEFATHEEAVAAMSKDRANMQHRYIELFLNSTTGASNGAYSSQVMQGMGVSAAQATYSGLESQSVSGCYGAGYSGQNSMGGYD

[9] = target: T9, HeLa cell extract proteins (Homo sapiens, UniProt Q15365)
T9 construct: endogenous in cells; host or cells: HeLa cell extract
T9 sequence (Q15365 whole entry): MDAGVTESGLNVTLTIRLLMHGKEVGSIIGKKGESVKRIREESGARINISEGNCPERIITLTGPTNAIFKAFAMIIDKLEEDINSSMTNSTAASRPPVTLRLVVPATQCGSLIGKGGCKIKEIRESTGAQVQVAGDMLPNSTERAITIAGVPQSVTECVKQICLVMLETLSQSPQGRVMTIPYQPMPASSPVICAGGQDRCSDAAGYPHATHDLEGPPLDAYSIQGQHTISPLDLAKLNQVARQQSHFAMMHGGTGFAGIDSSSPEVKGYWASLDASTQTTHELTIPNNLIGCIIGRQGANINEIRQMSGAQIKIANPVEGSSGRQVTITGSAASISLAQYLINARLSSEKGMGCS

[10] = target: T10, HeLa cell extract proteins (Homo sapiens, UniProt O00408)
T10 construct: endogenous in cells; host or cells: HeLa cell extract
T10 sequence (O00408 whole entry): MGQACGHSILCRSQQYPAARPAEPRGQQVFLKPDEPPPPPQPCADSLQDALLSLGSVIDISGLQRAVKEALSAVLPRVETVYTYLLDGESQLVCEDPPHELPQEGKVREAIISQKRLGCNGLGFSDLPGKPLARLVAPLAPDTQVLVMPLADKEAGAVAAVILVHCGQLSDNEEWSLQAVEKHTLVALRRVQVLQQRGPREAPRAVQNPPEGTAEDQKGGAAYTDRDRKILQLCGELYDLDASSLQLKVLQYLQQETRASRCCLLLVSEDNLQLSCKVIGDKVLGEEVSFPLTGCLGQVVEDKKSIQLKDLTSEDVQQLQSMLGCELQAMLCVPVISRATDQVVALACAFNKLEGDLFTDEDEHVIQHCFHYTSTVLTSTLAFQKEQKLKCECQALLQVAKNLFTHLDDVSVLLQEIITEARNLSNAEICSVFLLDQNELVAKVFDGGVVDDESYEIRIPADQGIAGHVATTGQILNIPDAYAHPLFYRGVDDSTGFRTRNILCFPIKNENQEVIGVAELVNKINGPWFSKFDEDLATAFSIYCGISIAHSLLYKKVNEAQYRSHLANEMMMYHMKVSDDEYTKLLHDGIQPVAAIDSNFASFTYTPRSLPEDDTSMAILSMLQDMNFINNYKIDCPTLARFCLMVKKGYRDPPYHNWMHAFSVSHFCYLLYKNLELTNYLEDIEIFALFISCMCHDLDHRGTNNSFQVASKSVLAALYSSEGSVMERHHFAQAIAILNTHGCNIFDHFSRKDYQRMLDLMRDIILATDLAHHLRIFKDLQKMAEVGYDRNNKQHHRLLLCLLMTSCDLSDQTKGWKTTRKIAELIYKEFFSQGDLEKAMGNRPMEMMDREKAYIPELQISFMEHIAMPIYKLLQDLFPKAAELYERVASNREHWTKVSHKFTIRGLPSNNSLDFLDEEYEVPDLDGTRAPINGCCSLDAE

[11] = target: T11, HeLa cell extract proteins (Homo sapiens, UniProt P42356)
T11 construct: endogenous in cells; host or cells: HeLa cell extract

[12] = HeLa, protein ALDOC (FRUCTOSE-BI[…] C.)

T1 sequence (Q13618 whole entry): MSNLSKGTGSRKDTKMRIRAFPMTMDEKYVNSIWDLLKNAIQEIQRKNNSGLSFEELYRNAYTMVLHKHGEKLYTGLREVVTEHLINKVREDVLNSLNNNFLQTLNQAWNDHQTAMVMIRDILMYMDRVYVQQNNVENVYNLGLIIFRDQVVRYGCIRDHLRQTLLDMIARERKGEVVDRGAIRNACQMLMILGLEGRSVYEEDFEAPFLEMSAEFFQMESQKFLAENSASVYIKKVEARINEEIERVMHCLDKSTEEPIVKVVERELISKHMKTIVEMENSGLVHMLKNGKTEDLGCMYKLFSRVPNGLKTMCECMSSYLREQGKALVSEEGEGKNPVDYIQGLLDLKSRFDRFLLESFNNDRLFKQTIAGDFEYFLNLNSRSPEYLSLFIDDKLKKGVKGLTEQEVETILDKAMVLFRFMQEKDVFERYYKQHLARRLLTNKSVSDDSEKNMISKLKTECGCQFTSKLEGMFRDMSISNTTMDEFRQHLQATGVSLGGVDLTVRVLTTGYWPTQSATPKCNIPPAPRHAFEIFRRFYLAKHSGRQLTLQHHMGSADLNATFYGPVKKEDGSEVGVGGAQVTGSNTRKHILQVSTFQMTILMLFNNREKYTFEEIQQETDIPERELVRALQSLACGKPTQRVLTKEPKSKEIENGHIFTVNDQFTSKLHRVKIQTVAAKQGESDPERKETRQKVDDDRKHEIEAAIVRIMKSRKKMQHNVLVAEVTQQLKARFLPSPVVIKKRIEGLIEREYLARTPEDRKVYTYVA
T2 sequence (Q15366 whole entry): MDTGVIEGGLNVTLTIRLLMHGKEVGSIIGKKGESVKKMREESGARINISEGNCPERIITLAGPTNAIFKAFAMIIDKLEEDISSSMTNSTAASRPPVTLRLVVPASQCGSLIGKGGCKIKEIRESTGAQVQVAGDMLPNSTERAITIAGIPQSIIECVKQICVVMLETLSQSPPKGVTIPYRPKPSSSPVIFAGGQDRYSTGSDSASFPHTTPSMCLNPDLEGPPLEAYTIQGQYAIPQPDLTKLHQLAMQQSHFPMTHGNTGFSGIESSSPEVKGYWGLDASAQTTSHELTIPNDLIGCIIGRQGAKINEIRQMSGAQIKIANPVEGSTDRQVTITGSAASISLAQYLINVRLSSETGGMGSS

For Nc1nc2c(c(=O)[nH]1)N(C=O)C(CNc1ccc(C(=O)N[C@@H](CCC(=O)O)C(=O)O)cc1)CN2 (some centres unmarked) [LEU, leucovorin], the “fold changes relative to vehicle control” value ([1]; HeLa, protein CUL3) was 0.92, the “fold changes relative to vehicle control” value ([2]; protein PCBP2, HeLa) was 0.85 and the “fold changes relative to vehicle control” value ([3]; HeLa, captured protein ALDH9A1) was 0.9. For the same compound, the “fold changes relative to vehicle control” value ([4]; HeLa, captured protein FDPS) was 1.05, the “fold changes relative to vehicle control” value ([5]; HeLa, protein ALDOC) was 0.9 and the “fold changes relative to vehicle control” value ([6]; HeLa, protein MYH9 (MYOSIN-9)) was 0.97. The “fold changes relative to vehicle control” value ([7]; HeLa, captured protein CANX) was 1.09, the “fold changes relative to vehicle control” value ([8]; HeLa, captured protein HNRNPF) was 0.98 and the “fold changes relative to vehicle control” value ([9]; HeLa, protein PCBP1) was 0.92. For the same compound, the “fold changes relative to vehicle control” value ([10]; protein PDE2A, HeLa) was 0.73 and the “fold changes relative to vehicle control” value ([11]; protein PI4KA, HeLa) was 0.82.
With NCCCNc1ccc(C(=O)NC(CCC(=O)O)C(=O)O)cc1 (centres unmarked) [compound 7] the “fold changes relative to vehicle control” value ([1]; HeLa, protein CUL3) was 0.91, the “fold changes relative to vehicle control” value ([2]; protein PCBP2, HeLa) was 0.96 and the “fold changes relative to vehicle control” value ([3]; HeLa, captured protein ALDH9A1) was 0.98. The “fold changes relative to vehicle control” value ([4]; HeLa, captured protein FDPS) was 0.97, the “fold changes relative to vehicle control” value ([5]; HeLa, protein ALDOC) was 1.12 and the “fold changes relative to vehicle control” value ([6]; HeLa, protein MYH9 (MYOSIN-9)) was 0.9. For the same compound, the “fold changes relative to vehicle control” value ([7]; HeLa, captured protein CANX) was 1.06, the “fold changes relative to vehicle control” value ([8]; HeLa, captured protein HNRNPF) was 0.95 and the “fold changes relative to vehicle control” value ([9]; HeLa, protein PCBP1) was 0.91. For the same compound, the “fold changes relative to vehicle control” value ([10]; protein PDE2A, HeLa) was 0.7 and the “fold changes relative to vehicle control” value ([11]; protein PI4KA, HeLa) was 1.02.
In the case of CCCCCCOc1cccc(Cc2cnc(N)nc2N)c1 [compound 2], the “fold changes relative to vehicle control” value ([1]; captured protein CUL3, HeLa) is reported as 1.17, the “fold changes relative to vehicle control” value ([2]; protein PCBP2, HeLa) is reported as 1.28 and the “fold changes relative to vehicle control” value ([3]; protein ALDH9A1, HeLa) is reported as 1.01. For the same compound, the “fold changes relative to vehicle control” value ([4]; protein FDPS, HeLa) was 2.08, the “fold changes relative to vehicle control” value ([5]; HeLa, protein ALDOC (FRUCTOSE-BISPHOSPHATE ALDOLASE C.)) was 2.35 fold and the “fold changes relative to vehicle control” value ([6]; captured protein MYH9, HeLa) was 1.23. For the same compound, the “fold changes relative to vehicle control” value ([7]; protein CANX, HeLa) was 2.38, the “fold changes relative to vehicle control” value ([8]; HeLa, protein HNRNPF) was 0.88 and the “fold changes relative to vehicle control” value ([9]; protein PCBP1, HeLa) was 1.08. The “fold changes relative to vehicle control” value ([10]; protein PDE2A, HeLa) was 1.7 and the “fold changes relative to vehicle control” value ([11]; captured protein PI4KA, HeLa) was 1.14.
CCCCCCOc1ccc(Cc2cnc(N)nc2N)cc1 [compound 1] was tested, and the “fold changes relative to vehicle control” value ([1]; captured protein CUL3, HeLa) was 1.01, the “fold changes relative to vehicle control” value ([2]; protein PCBP2, HeLa) was 0.96 and the “fold changes relative to vehicle control” value ([3]; protein ALDH9A1, HeLa) was 1. The “fold changes relative to vehicle control” value ([4]; protein FDPS, HeLa) was 1.17, the “fold changes relative to vehicle control” value [5, 12] was 1.49 fold and the “fold changes relative to vehicle control” value ([6]; captured protein MYH9, HeLa) was 0.91. For the same compound, the “fold changes relative to vehicle control” value ([7]; protein CANX, HeLa) was 1.3, the “fold changes relative to vehicle control” value ([8]; HeLa, protein HNRNPF) was 0.95 and the “fold changes relative to vehicle control” value ([9]; protein PCBP1, HeLa) was 1.02. For the same compound, the “fold changes relative to vehicle control” value ([10]; protein PDE2A, HeLa) was 0.61 and the “fold changes relative to vehicle control” value ([11]; captured protein PI4KA, HeLa) was 0.71.
With Nc1nc2cccc(-c3ccccc3)c2n1Cc1ccc(Cl)c(Cl)c1 [compound 3] the “fold changes relative to vehicle control” value ([1]; captured protein CUL3, HeLa) was 0.93, the “fold changes relative to vehicle control” value ([2]; protein PCBP2, HeLa) was 0.91 and the “fold changes relative to vehicle control” value ([3]; protein ALDH9A1, HeLa) was 1.08. For the same compound, the “fold changes relative to vehicle control” value ([4]; protein FDPS, HeLa) was 0.87, the “fold changes relative to vehicle control” value [5, 12] was 1.23 fold and the “fold changes relative to vehicle control” value ([6]; captured protein MYH9, HeLa) was 0.85. For the same compound, the “fold changes relative to vehicle control” value ([7]; protein CANX, HeLa) was 0.92, the “fold changes relative to vehicle control” value ([8]; HeLa, protein HNRNPF) was 1.36 and the “fold changes relative to vehicle control” value ([9]; protein PCBP1, HeLa) was 0.94. For the same compound, the “fold changes relative to vehicle control” value ([10]; protein PDE2A, HeLa) was 0.64 and the “fold changes relative to vehicle control” value ([11]; captured protein PI4KA, HeLa) was 0.77.
In the case of NCCOCCOCC(=O)Nc1nc2ncc(CNc3ccc(C(=O)NC(CCC(=O)O)C(=O)O)cc3)nc2c(=O)[nH]1 (centres unmarked) [compound 6], the “fold changes relative to vehicle control” value ([1]; HeLa, protein CUL3) is reported as 0.97, the “fold changes relative to vehicle control” value ([2]; protein PCBP2, HeLa) is reported as 1.04 and the “fold changes relative to vehicle control” value ([3]; HeLa, captured protein ALDH9A1) is reported as 0.92. The “fold changes relative to vehicle control” value ([4]; HeLa, captured protein FDPS) was 1.29, the “fold changes relative to vehicle control” value ([5]; HeLa, protein ALDOC) was 1.06 and the “fold changes relative to vehicle control” value ([6]; HeLa, protein MYH9 (MYOSIN-9)) was 1.44. The “fold changes relative to vehicle control” value ([7]; HeLa, captured protein CANX) was 1.35, the “fold changes relative to vehicle control” value ([8]; HeLa, captured protein HNRNPF) was 0.92 and the “fold changes relative to vehicle control” value ([9]; HeLa, protein PCBP1) was 0.94. The “fold changes relative to vehicle control” value ([10]; protein PDE2A, HeLa) was 0.79 and the “fold changes relative to vehicle control” value ([11]; protein PI4KA, HeLa) was 0.94.
With Nc1nc2[nH]cc(CCc3ccc(C(=O)N[C@@H](CCC(=O)O)C(=O)O)cc3)c2c(=O)[nH]1 [PTX, pemetrexed] the “fold changes relative to vehicle control” value [1] was 0.92, the “fold changes relative to vehicle control” value [2] was 1.03 and the “fold changes relative to vehicle control” value [3] was 1.02. For the same compound, the “fold changes relative to vehicle control” value [4] was 1.08, the “fold changes relative to vehicle control” value [5] was 1.04 and the “fold changes relative to vehicle control” value [6] was 0.99. The “fold changes relative to vehicle control” value [7] was 1.25, the “fold changes relative to vehicle control” value [8] was 0.87 and the “fold changes relative to vehicle control” value [9] was 0.88. For the same compound, the “fold changes relative to vehicle control” value [10] was 0.71 and the “fold changes relative to vehicle control” value [11] was 0.73.
